Laboratory results as given in patent US8318731B2, “Pyrrolopyrimidines” (Janssen Pharmaceutica NV, priority 2007, dated 2012).

Columns and labels:
PLK4 (h) = biological target: T1, PLK4 (h) (Homo sapiens, UniProt O00444); test: PLK-4 human kinase scintillation proximity assay (SPA); assay type: biochemical; conditions: 1 μM ATP, 60 minutes at r.t., read-out: PLK4 pIC50 (converted)
T1 sequence (O00444 1-970): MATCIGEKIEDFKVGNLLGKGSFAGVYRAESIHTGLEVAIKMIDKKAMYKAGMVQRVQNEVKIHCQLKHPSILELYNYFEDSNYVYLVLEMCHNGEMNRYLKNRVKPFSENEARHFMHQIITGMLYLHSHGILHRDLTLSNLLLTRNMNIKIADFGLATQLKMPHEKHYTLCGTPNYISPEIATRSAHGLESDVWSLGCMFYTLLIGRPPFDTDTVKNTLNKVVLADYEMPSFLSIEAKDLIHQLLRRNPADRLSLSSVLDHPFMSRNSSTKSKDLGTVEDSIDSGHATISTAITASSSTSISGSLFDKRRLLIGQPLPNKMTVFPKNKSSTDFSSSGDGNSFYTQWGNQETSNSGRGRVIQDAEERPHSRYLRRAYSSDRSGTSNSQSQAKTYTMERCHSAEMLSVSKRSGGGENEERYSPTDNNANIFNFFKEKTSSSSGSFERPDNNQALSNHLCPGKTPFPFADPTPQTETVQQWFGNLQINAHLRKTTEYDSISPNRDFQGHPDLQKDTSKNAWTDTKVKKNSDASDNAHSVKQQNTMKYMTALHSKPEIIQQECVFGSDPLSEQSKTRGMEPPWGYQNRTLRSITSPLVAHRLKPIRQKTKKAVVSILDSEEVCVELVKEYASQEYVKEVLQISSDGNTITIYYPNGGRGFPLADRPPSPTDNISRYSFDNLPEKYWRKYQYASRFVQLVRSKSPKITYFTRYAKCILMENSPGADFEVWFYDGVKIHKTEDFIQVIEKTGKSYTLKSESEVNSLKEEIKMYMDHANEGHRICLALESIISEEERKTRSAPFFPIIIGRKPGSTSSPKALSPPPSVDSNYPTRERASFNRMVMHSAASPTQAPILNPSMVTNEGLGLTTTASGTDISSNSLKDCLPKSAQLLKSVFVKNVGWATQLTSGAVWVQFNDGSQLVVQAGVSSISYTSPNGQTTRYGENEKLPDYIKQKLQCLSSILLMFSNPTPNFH
Experimental: The in vitro inhibition of a panel of kinases was assessed using either the scintillation proximity assay (SPA) as described by Cook, N. D. et al., Advances in Experimental Medicine and Biology (1991), 36; p. 525-528.
In the SPA technology the activity of the kinase of interest is measured using an appropriate biotinylated substrate that is incubated with the aforementioned kinase protein in the presence of (^33P) radiolabeled ATP. (^33P) Phosphorylation of the substrate is subsequently measured through binding of the phosphorylated substrate to streptavidine coated beads that are based on the scintillant poly(vinyl toluene) (PVT-Beads). The scintillation intensity is detected by imaging on Leadseeker.
All kinases are pre-diluted to a 10× working concentration prior to addition into the assay. The composition of the dilution buffer for each kinase is detailed below.
In a final reaction volume of 30 μl, PLK4 (h) (19 μg/ml) is incubated with 50 mM Hepes pH 8.0, 10 mM MgCl2, 50 mM NaCl, 1 mM NaF, 1 mM DTT, 10 μM of peptide Biotin-RPRGQRDSSYYWE-OH, 1 μM ATP and 2 nM [γ-^33P-ATP] (6.0 μCi/ml). After incubation of 60 minutes at r.t., the reaction is stopped by addition of 40 μL of stop solution containing 8.7 mM EDTA, BSA 0.17%, 0.17% Triton X-100, 1.7 mg/ml SPA beads (GE-healthcare). The plate is centrifuged and read for Scintillation imaging on Leadseeker.

H1299 = test: Cellular proliferation assay (Alamar blue), H1299; assay type: cell-based; conditions: Homo sapiens, NCI-H1299, H1299 cells; 10% FCS; 72 h with compound; Alamar blue 4 h; read-out: pIC50 H1299 (converted)
Experimental: (§1) Cellular proliferation of these compounds was tested on a panel of different cell lines in the presence of 10% FCS serum (37° C. and 5% (v/v) CO2). In a first step these cells were seeded and incubated for 24 hours in the absence of compound. In the second step the cells were incubated for 72 hours with the compounds to be tested for 72 hours. The viable cell number was finally assessed in a standard Alamar blue cell viability assay.
(§2) The viable cell number was assessed by incubation for either 4 h (HCT-116, H1299) 6 h (U87-MG) or 24 h (A2780, PC3, MDA-MB-231) with Alamar blue (Resazurin 9 μg/ml, K-Ferrocyanide 90 μM, K-Ferricyanide 90 μM) and the converted fluorescent product was quantified on a fluorescent plate readed (544 nm/590 nm). Effect of the compounds is calculated as of on control cells.

HCT-116 = test: Cellular proliferation assay (Alamar blue), HCT-116; assay type: cell-based; conditions: Homo sapiens; HCT-116 cells; 10% FCS; 72 h with compound; Alamar blue 4 h; read-out: pIC50 HCT-116 (converted)
Experimental: as §1, §2

A2780 = test: Cellular proliferation assay (Alamar blue), A2780; assay type: cell-based; conditions: Homo sapiens, A2780, A2780 cells; 10% FCS; 72 h with compound; Alamar blue 24 h; read-out: pIC50 A2780 (converted)
Experimental: as §1, §2

MDA-MB-231 = test: Cellular proliferation assay (Alamar blue), MDA-MB-231; assay type: cell-based; conditions: Homo sapiens, MDA-MB-231, MDA-MB-231 cells; 10% FCS; 72 h with compound; Alamar blue 24 h; read-out: pIC50 MDA/MB231 (converted)
Experimental: as §1, §2

PC3 = test: Cellular proliferation assay (Alamar blue), PC3; assay type: cell-based; conditions: Homo sapiens, PC-3, PC-3 cells; 10% FCS; 72 h with compound; Alamar blue 24 h; read-out: pIC50 PC-3 (converted)
Experimental: as §1, §2

Row | SMILES | IC50 (PLK4 (h)) [µM] | IC50 (H1299) [µM] | IC50 (HCT-116) [µM] | IC50 (A2780) [µM] | IC50 (MDA-MB-231) [µM] | IC50 (PC3) [µM]
1 | COc1ccc2cc1CN(C)[C@@H](CO)C(=O)N(C)CCCc1c[nH]c3ncnc(c13)N2 [Compound 9] | > 10 | – | – | – | – | –
2 | CN1CCCN(C)C(=O)COc2cc(ccc2OCc2ccccc2)Nc2ncnc3[nH]cc(c23)C1 [Compound 11] | 0.0501 | – | – | – | – | –
3 | COc1ccc2cc1OCCCC(=O)NCCCN(C)Cc1c[nH]c3ncnc(c13)N2 [Compound 25] | 0.631 | – | – | – | – | –
4 | COc1ccc2cc1OCC(=O)N[C@H](Cc1ccccc1)CN(C)CCCc1c[nH]c3ncnc(c13)N2 [Compound 39] | > 10 | – | – | – | – | –
5 | COc1ccc2cc1CN(C)[C@@H](Cc1ccccc1)C(=O)N(C)CCCc1c[nH]c3ncnc(c13)N2 [Compound 51] | > 10 | – | – | – | – | –
6 | COc1ccc2cc1CN(C)[C@@H](CC(C)C)C(=O)N(C)CCCc1c[nH]c3ncnc(c13)N2 [Compound 52] | > 10 | – | – | – | – | –
7 | COc1ccc2cc1OCC(=O)N(C)CC1CN(Cc3c[nH]c4ncnc(c34)N2)C1 [Compound 89] | 0.251 | > 10 | > 10 | > 10 | > 10 | > 10
8 | CN1CCCN(C)C(=O)COc2cc(ccc2OCC(=O)NC2CCCC2)Nc2ncnc3[nH]cc(c23)C1 [Compound 91] | 0.0251 | 3.16 | 1.58 | 0.794 | > 10 | > 10
9 | COc1cc2cc(c1OC)OCC(=O)N(C)CCN(C)Cc1c[nH]c3ncnc(c13)N2 [Compound 96] | 5.01 | > 10 | > 10 | > 10 | > 10 | > 10
10 | CN1CCN(C)C(=O)COc2cc(ccc2N2CCOCC2)Nc2ncnc3[nH]cc(c23)C1 [Compound 97] | 0.794 | > 10 | > 10 | > 10 | > 10 | > 10
11 | CN1CCCN(C)C(=O)COc2cc(ccc2OCCOC2CCCC2)Nc2ncnc3[nH]cc(c23)C1 [Compound 99] | 0.0251 | 0.0398 | 0.0631 | – | > 10 | 6.31
12 | CN1CCN(c2ccc3cc2OCCCCC(=O)N2CCN(CC2)Cc2c[nH]c4ncnc(c24)N3)CC1 [Compound 108] | 7.94 | > 10 | > 10 | > 10 | > 10 | > 10
13 | CN1CCN(c2ccc3cc2OCCCC(=O)N2CCN(CC2)Cc2c[nH]c4ncnc(c24)N3)CC1 [Compound 109] | > 10 | > 10 | > 10 | > 10 | > 10 | > 10
14 | O=C1CCCOc2cc(ccc2N2CCOCC2)Nc2ncnc3[nH]cc(c23)CN2CCN1CC2 [Compound 110] | 7.94 | – | – | – | – | –
15 | CN1CCCN(C)C(=O)COc2cc(ccc2NC(=O)Nc2cc(Cl)cc(Cl)c2)Nc2ncnc3[nH]cc(c23)C1 [Compound 115] | 0.158 | 1.58 | 0.794 | 1 | > 10 | > 10
16 | CN1CCCN(C)C(=O)COc2cc(ccc2OCC(=O)N2CCOCC2)Nc2ncnc3[nH]cc(c23)C1 [Compound 117] | 0.0501 | > 10 | > 10 | 3.98 | > 10 | > 10

Other lines, results leading:

Row | IC50 (PLK4 (h)) [µM] | IC50 (H1299) [µM] | IC50 (HCT-116) [µM] | IC50 (A2780) [µM] | IC50 (MDA-MB-231) [µM] | IC50 (PC3) [µM] | SMILES
17 | 0.501 | – | – | – | – | – | CN1CCCN(C)C(=O)CCCOc2cccc(c2)Nc2ncnc3[nH]cc(c23)C1 [Compound 32]
18 | 0.501 | – | – | – | – | – | CN1CCCN(C)C(=O)CCCOc2cc(ccc2Cl)Nc2ncnc3[nH]cc(c23)C1 [Compound 43]
19 | 0.794 | – | – | – | – | – | COc1ccc2cc1CCC(=O)N(C)CCCN(C)Cc1c[nH]c3ncnc(c13)N2 [Compound 55]
20 | 2 | > 10 | > 10 | > 10 | > 10 | > 10 | COc1cc2cc(c1OC)OCCCC(=O)N(C)CCCN(C)Cc1c[nH]c3ncnc(c13)N2 [Compound 69]
21 | 5.01 | 3.98 | > 10 | > 10 | > 10 | > 10 | CN1CCCN(C)C(=O)CCCOc2cc(cc(C(F)(F)F)c2)Nc2ncnc3[nH]cc(c23)C1 [Compound 83]
22 | 0.0316 | – | – | – | – | – | CN1CCCN(C)C(=O)COc2cc(ccc2OC2CCCC2)Nc2ncnc3[nH]cc(c23)C1 [Compound 90]
23 | > 10 | 6.31 | > 10 | > 10 | > 10 | > 10 | CN1CCN(C)C(=O)CCCCOc2cc(cc(C(F)(F)F)c2)Nc2ncnc3[nH]cc(c23)C1 [Compound 92]
24 | 6.31 | 1.26 | > 10 | > 10 | > 10 | > 10 | CN1CCN(C)C(=O)CCCOc2cc(cc(C(F)(F)F)c2)Nc2ncnc3[nH]cc(c23)C1 [Compound 93]
25 | 5.01 | > 10 | > 10 | > 10 | > 10 | 10 | CN1CCN(c2ccc3cc2OCCCC(=O)N(C)CCN(C)Cc2c[nH]c4ncnc(c24)N3)CC1 [Compound 94]
26 | > 10 | > 10 | > 10 | > 10 | > 10 | > 10 | COc1cc2cc(c1OC)OCCCC(=O)N(C)CCN(C)Cc1c[nH]c3ncnc(c13)N2 [Compound 95]
27 | 0.0501 | 0.631 | 1.58 | 1.58 | 6.31 | 2 | CC(C)Oc1ccc2cc1OCC(=O)N(C)CCCN(C)Cc1c[nH]c3ncnc(c13)N2 [Compound 100]
28 | 0.0398 | 0.794 | 1.58 | 1.58 | 7.94 | 2 | CCCOc1ccc2cc1OCC(=O)N(C)CCCN(C)Cc1c[nH]c3ncnc(c13)N2 [Compound 101]
29 | 3.98 | 2.51 | 6.31 | 6.31 | > 10 | 5.01 | CN1CCN(c2ccc3cc2OCCCC(=O)N(C)CCCN(C)Cc2c[nH]c4ncnc(c24)N3)CC1 [Compound 102]
30 | 0.158 | – | – | – | – | – | CN1CCCN(C)C(=O)COc2cc(ccc2OC2CCOC2)Nc2ncnc3[nH]cc(c23)C1 (centres unmarked) [Compound 135]
